{"source": "patent US20090137550A1", "about": "“Novel Compounds” (Glaxo Group Limited, priority 2005, published 2009)", "key": {"[1]": {"test_system": "TNF-stimulated IL8 production by human neutrophils", "test": "TNF-Stimulated IL-8 Production from Human Neutrophils", "type": "cell-based", "settings": "TNF 100 ng/ml, approximately 20 hrs, IL-8 by ELISA"}, "[2]": {"test_system": "LPS-stimulated cytokine production (IL-1beta and/or TNFalpha)", "test": "LPS-Stimulated Cytokine Production in Human Whole Blood", "type": "cell-based", "settings": "50 ng/ml LPS, 4 hour incubation, IL-1beta and/or TNFalpha by ELISA", "protocol": "Assay: Test compound concentrations were prepared at 10× concentrations and LPS prepared at 1 ug/ml (final conc. of 50 ng/ml LPS) and added in 50 uL volumes to 1.5 mL eppendorf tubes. Heparinized human whole blood was obtained from healthy volunteers and was dispensed into eppendorf tubes or multiwell plates containing compounds and LPS in 0.2-0.4 mL volumes and the tubes incubated at 37 C. In some studies, compound was incubated with blood for up to 30 min prior to addition of LPS. Following a 4 hour incubation, the tubes or plates were centrifuged to remove cells and plasma was withdrawn and frozen at −80 C. Cytokine measurement: IL-Ibeta and/or TNFalpha were quantified using a standardized ELISA, or similar technology. Concentrations of IL-1beta or TNFalpha were determined from standard curves of the appropriate cytokine and IC50 values for test compound (concentration that inhibited 50% of LPS-stimulated cytokine production) were calculated by linear regression analysis."}, "[3]": {"test_system": "IL-6, IL-8, GM-CSF, RANTES and COX-2", "settings": "a number of different cell types; cited from earlier work"}, "[4]": {"test_system": "fibronectin and thrombospondin", "settings": "Laping et al., 2002; cited from earlier work"}}, "data": [{"smiles": "Cc1cc(F)ccc1-c1nc(NCCNC(N)=NC#N)nc2c1ccc(=O)n2-c1c(F)cccc1F", "note": "[Example 10]", "values": [{"measurement": "IC50, TNF-stimulated IL-8 production", "setting": "[1]", "result": "active"}, {"measurement": "IC50 (concentration that inhibited 50% of LPS-stimulated cytokine production)", "setting": "[2]", "result": "active"}]}, {"smiles": "C[S+]([O-])c1ccc(-c2nc(-c3ccncc3)c(-c3ccc(F)cc3)[nH]2)cc1", "note": "(centres unmarked) [SB-203580]", "values": [{"measurement": "decreasing the synthesis of pro-inflammatory proteins including IL-6, IL-8, GM-CSF, RANTES and COX-2", "setting": "[3]", "result": "effective"}]}, {"smiles": "COc1nccc(-c2c(-c3ccc(F)cc3)ncn2C2CCNCC2)n1", "note": "[SB-242235]", "values": [{"measurement": "inhibition of TGF-β-induced increases in fibronectin and thrombospondin", "setting": "[4]", "result": "inhibited"}]}, {"smiles": "Fc1ccc(-c2nc3n(c2-c2ccncc2)CCS3)cc1", "note": "[SK&F 86002]", "values": [{"measurement": "decreasing the synthesis of pro-inflammatory proteins including IL-6, IL-8, GM-CSF, RANTES and COX-2", "setting": "[3]", "result": "effective"}]}]}
